Results from patent US8846000B2, “Radiolabeled PDE10 inhibitors” (Merck Sharp & Dohme Corp., priority 2009, dated 2014).

Biological target: human PDE10A2 (Homo sapiens (Human), UniProt Q9Y233)
Test: PDE10 fluorescence polarization (IMAP FP) assay
Format: biochemical
Settings: inhibition of FAM-labeled cAMP hydrolysis, apparent inhibition constant
Procedure: The activity of the compounds in accordance with the present invention as PDE10 inhibitors may be readily determined without undue experimentation using a fluorescence polarization (FP) methodology well known in the art (Huang, W., et al., J. Biomol Screen, 2002, 7: 215).
In a typical experiment the PDE10 inhibitory activity of the compounds of the present invention was determined in accordance with the following experimental method. PDE10A2 was amplified from human fetal brain cDNA (Clontech, Mountain View, Calif.) using a forward primer corresponding to nucleotides 56-77 of human PDE10A2 (Accession No. AF127480, Genbank Identifier 4894716), containing a Kozak consensus sequence, and a reverse primer Corresponding to nucleotides 2406-2413 of human PDE100A2 (Accession No. AF127480, Genbank Identifier 4894716). Amplification with Easy-A polymerase (Stratagene, La Jolla, Calif.) was 95° C. for 2 minutes followed by thirty three cycles of 95° C. for 40 seconds, 55° C. for 30 seconds, and 72° C. for 2 minutes 48 seconds. Final extension was 72° C. for 7 minutes. The PCR product was TA cloned into pcDNA3.2-TOPO (Invitrogen, Carlsbad, Calif.) according to standard protocol.
AD293 cells with 70-80% confluency were transiently transfected with human PDE10A2/pcDNA3.2-TOPO using Lipofectamine 2000 according to manufacturer specifications (Invitrogen, Carlsbad, Calif.). Cells were harvested 48 hours post-transfection and lysed by sonication (setting 3, 10×5 sec pulses) in a buffer containing 20 mM HEPES, 1 mM EDTA and protease inhibitor cocktail (Roche). Lysate was collected by centrifugation at 75,000×g for 20 minutes. Supernatant containing the cytoplasmic fraction was used for evaluation of PDE100A2 activity.
The fluorescence polarization assay for cyclic nucleotide phosphodiesterases was performed using an IMAP® FP kit supplied by Molecular Devices, Sunnyvale, Calif. (product #R8139). IMAP® technology has been applied previously to phosphodiesterase assays (Huang, W., et al., J. Biomol Screen, 2002, 7: 215). Assays were performed at room temperature in 384-well microtiter plates with an incubation volume of 20.2 μL. Solutions of test compounds were prepared in DMSO and serially diluted with DMSO to yield 8 μL of each of 10 solutions differing by 3-fold in concentration, at 32 serial dilutions per plate. 100% inhibition is determined using a known PDE10 inhibitor, which can be any compound that is present at 5,000 times its Ki value in the assay described as follows, such as papaverine (see Siuciak, et al. Neuropharmacology (2006) 51:386-396; Becker, et al. Behav Brain Res (2008) 186(2):155-60; Threlfell, et al., J Pharmacol Exp Ther (2009) 328(3):785-795), 2-{4-[pyridin-4-yl-1-(2,2,2-trifluoroethyl)-1H-pyrazol-3-yl]phenoxymethyl}quinoline succinic acid or 2-[4-(1-methyl-4-pyridin-4-yl-1H-pyrazol-3-yl)-phenoxymethyl]quinoline succinic acid (see Schmidt, et al. J Pharmacol Exp Ther (2008) 325:681-690; Threlfell, et al., J Pharmacol Exp Ther (2009) 328(3): 785-795). 0% of inhibition is determined by using DMSO (1% final concentrations).
A Labcyte Echo 555 (Labcyte, Sunnyvale, Calif.) is used to dispense […] from each well of the titration plate to the 384 well assay plate. A solution of enzyme (1/1600 dilution from aliquots; sufficient to produce 20% substrate conversion) and a separate solution of FAM-labeled cAMP PDE from Molecular Devices (product #R7506), at a final concentration of 50 nM are made in the assay buffer (10 mM Tris HCl, pH 7.2, 10 mM MgCl2, 0.05% NaN3 0.01% Tween-20, and 1 mM DTT). The enzyme and the substrate are then added to the assay plates in two consecutive additions of 10 μL, and then shaken to mix. The reaction is allowed to proceed at room temperature for 30 minutes. A binding solution is then made from the kit components, comprised of 80% Solution A, 20% Solution B and binding reagent at a volume of 1/600 the total binding solution. […]

Chain of human PDE10A2 (Q9Y233 267-1055): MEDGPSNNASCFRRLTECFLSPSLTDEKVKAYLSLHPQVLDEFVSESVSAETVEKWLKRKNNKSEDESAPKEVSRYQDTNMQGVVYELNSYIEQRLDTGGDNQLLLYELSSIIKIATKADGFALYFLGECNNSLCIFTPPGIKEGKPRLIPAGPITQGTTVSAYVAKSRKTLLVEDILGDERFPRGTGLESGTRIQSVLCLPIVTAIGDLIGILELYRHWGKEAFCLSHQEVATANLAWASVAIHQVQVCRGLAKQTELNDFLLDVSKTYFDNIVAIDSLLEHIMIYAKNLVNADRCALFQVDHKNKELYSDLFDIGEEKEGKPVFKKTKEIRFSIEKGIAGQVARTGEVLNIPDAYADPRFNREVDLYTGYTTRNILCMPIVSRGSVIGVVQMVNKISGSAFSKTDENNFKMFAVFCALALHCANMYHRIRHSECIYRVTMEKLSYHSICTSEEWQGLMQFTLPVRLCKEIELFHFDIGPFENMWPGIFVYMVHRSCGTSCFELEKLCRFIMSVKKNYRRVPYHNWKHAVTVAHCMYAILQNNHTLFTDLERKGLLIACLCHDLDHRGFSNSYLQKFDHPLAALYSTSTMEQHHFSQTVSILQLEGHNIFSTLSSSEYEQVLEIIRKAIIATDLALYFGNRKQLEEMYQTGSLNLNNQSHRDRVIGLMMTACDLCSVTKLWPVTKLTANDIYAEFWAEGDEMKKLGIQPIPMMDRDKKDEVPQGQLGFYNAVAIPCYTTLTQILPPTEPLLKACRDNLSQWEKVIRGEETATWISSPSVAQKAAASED

Compound | Ki [nM]
COc1ccc(-n2c(CCN3C(=O)c4cccc(OC5CCC5)c4C3=O)nc3ccccc3c2=O)cc1 [1-21, 4-(cyclobutyloxy)-2-{2-[3-(4-methoxyphenyl)-4-oxo-3,4-dihydroquinazolin-2-yl]ethyl}-1H-isoindole-1,3(2H)-dione] | 1
COc1ccc(-n2c(CCN3C(=O)c4cccc(OC(C)C)c4C3=O)nc3ncccc3c2=O)cc1 [1-11, 4-isopropoxy-2-{2-[3-(4-methoxyphenyl)-4-oxo-3,4-dihydropyrido[2,3-d]pyrimidin-2-yl]ethyl}-1H-isoindole-1,3(2H)-dione] | 0.56
COc1ccc2c(=O)n(-c3cccc(C)c3)c(CCN3C(=O)c4cccc(OC)c4C3=O)nc2c1 [1-7, 4-methoxy-2-{2-[7-methoxy-3-(3-methylphenyl)-4-oxo-3,4-dihydroquinazolin-2-yl]ethyl}-1H-isoindole-1,3(2H)-dione] | 0.7
COc1ccc2c(=O)n(-c3cccc(C)c3)c(CCN3C(=O)c4cccc(OC(C)C)c4C3=O)nc2c1 [1-14, 4-isopropoxy-2-{2-[7-methoxy-3-(3-methylphenyl)-4-oxo-3,4-dihydroquinazolin-2-yl]ethyl}-1H-isoindole-1,3(2H)-dione] | 0.077
CC(C)Oc1cccc2c1C(=O)N(CCc1nc3ccccc3c(=O)n1-c1ccc(OCc3ccccc3)cc1)C2=O [D-5, 2-(2-{3-[4-(benzyloxy)phenyl]-4-oxo-3,4-dihydroquinazolin-2-yl}ethyl)-4-isopropoxy-1H-isoindole-1,3(2H)-dione] | 0.83
COc1ccc(-n2c(CCN3C(=O)c4cccc(OC)c4C3=O)nc3ccccc3c2=O)cc1 [B-3, 4-methoxy-2-{2-[3-(4-methoxyphenyl)-4-oxo-3,4-dihydroquinazolin-2-yl]ethyl}-1H-isoindole-1,3(2H)-dione] | 2
COc1ccc(-n2c(CCN3C(=O)c4ccccc4C3=O)nc3ncccc3c2=O)cc1 [1-1, 2-{2-[3-(4-methoxyphenyl)-4-oxo-3,4-dihydropyrido[2,3-d]pyrimidin-2-yl]ethyl}-1H-isoindole-1,3(2H)-dione] | 39
COc1ccc(-n2c(CN3C(=O)c4ccccc4C3=O)nc3ccccc3c2=O)cc1 [1-17, 2-{[3-(4-methoxyphenyl)-4-oxo-3,4-dihydroquinazolin-2-yl]methyl}-1H-isoindole-1,3(2H)-dione] | 1900
COc1ccc(-n2c(CCc3cn(C(=O)OC(C)(C)C)c4ccccc34)nc3ccccc3c2=O)cc1 [1-9, tert-butyl 3-{2-[3-(4-methoxyphenyl)-4-oxo-3,4-dihydroquinazolin-2-yl]ethyl}-1H-indole-1-carboxylate] | 39
